Test results: patent US20140213648A1, “METHODS OF INCREASING EPA BLOOD LEVELS” (priority 2012, published 2014)

Test: 12-week placebo-controlled study: plasma fatty acid concentrations, ratios and proportions (GC/FID)
Assay type: in vivo, human
Conditions: for AA plasma concentration, change from baseline (LS mean (SE)) / AA plasma concentration, end-of-treatment (mean) / DHA plasma concentration, change from baseline (LS mean (SE)) / DHA plasma concentration, end-of-treatment (mean) / Linoleic plasma concentration, change from baseline (LS mean (SE)) / Linoleic plasma concentration, end-of-treatment (mean) / Oleic plasma concentration, change from baseline (LS mean (SE)) / Oleic plasma concentration, end-of-treatment (mean) / Palmitic plasma concentration, change from baseline (LS mean (SE)) / Palmitic plasma concentration, end-of-treatment (mean) / Proportion of monounsaturated fatty acids to total fatty acids in plasma, change from baseline (LS mean (SE)) / Proportion of monounsaturated fatty acids to total fatty acids in plasma, end-of-treatment (mean (SD)) / Proportion of saturated fatty acids to total fatty acids in plasma, change from baseline (LS mean (SE)) / Proportion of saturated fatty acids to total fatty acids in plasma, end-of-treatment (mean (SD)) / Proportion of total omega-3 fatty acids to total fatty acids in plasma, change from baseline (LS mean (SE)) / Proportion of total omega-3 fatty acids to total fatty acids in plasma, end-of-treatment (mean (SD)) / Proportion of total omega-6 fatty acids to total fatty acids in plasma, change from baseline (LS mean (SE)) / Proportion of total omega-6 fatty acids to total fatty acids in plasma, end-of-treatment (mean (SD)) / Ratio of AA/EPA in plasma, change from baseline (LS mean (SE)) / Ratio of AA/EPA in plasma, end-of-treatment (mean) / Ratio of n-3/n-6 FA in plasma, change from baseline (LS mean (SE)) / Ratio of n-3/n-6 FA in plasma, end-of-treatment (mean) / Stearic plasma concentration, change from baseline (LS mean (SE)) / Stearic plasma concentration, end-of-treatment (mean): week 12
Experimental: A multi-center, placebo-controlled randomized, double-blind, 12-week study with an open-label extension is performed to evaluate the efficacy and safety of AMR101 in patients with fasting triglyceride levels ≧500 mg/dL. The primary objective of the study is to determine the efficacy of AMR101 2 g daily and 4 g daily, compared to placebo, in lowering fasting TG levels in patients with fasting TG levels ≧500 mg/dL and ≦1500 mg/dL (≧5.65 mmol/L and ≦16.94 mmol/L).
Eligible patients will be randomly assigned at Visit 4 (Week 0) to receive orally AMR101 2 g daily, AMR101 4 g daily, or placebo for the 12-week double-blind treatment period. AMR101 is provided in 1 g liquid-filled, oblong, gelatin capsules. The matching placebo capsule is filled with light liquid paraffin and contains 0 g of AMR101. During the double-blind treatment period, patients will take 2 capsules (AMR101 or matching placebo) in the morning and 2 in the evening for a total of 4 capsules per day. Patients in the AMR101 2 g/day treatment group will receive 1 AMR101 1 g capsule and 1 matching placebo capsule in the morning and in the evening. Patients in the AMR101 4 g/day treatment group will receive 2 AMR101 1 g capsules in the morning and evening.
Lipids were extracted from plasma and RBC suspensions and converted into fatty acid methyl esters for analysis using a standard validated gas chromatography/flame ionization detection method. Fatty acid parameters were compared between EPA treatment groups and placebo using an ANCOVA model with treatment, gender, type of statin therapy, and presence of diabetes as factors, and the baseline parameter value as a covariate. LSMs, SEs, and 2-tailed 95% confidence intervals for each treatment group and for each comparison were determined.

[1] = 2 g/day vs placebo, week 12, P <0.0001
[2] = 4 g/day vs placebo, week 12, P <0.0001

Compound: CC/C=C\C/C=C\C/C=C\C/C=C\C/C=C\CCCC(=O)OCC [IPE, Icosapent ethyl]
- Dose dependence of EPA concentration in plasma (in words) (2 g/day or 4 g/day, 12 weeks): significantly increased EPA concentrations in a linear, dose-dependent fashion
- Proportion of monounsaturated fatty acids to total fatty acids in plasma, mean placebo-adjusted percent change from baseline (2 g/day vs placebo, week 12, P 0.0009): −7.4%
- Palmitic plasma concentration, mean placebo-adjusted percent change from baseline (2 g/day vs placebo, week 12, P 0.0011): −23.9%
- Oleic plasma concentration, mean placebo-adjusted percent change from baseline (2 g/day vs placebo, week 12, P 0.0023): −23.8%
- Stearic plasma concentration, mean placebo-adjusted percent change from baseline (2 g/day vs placebo, week 12, P 0.0040): −20.7%
- Linoleic plasma concentration, mean placebo-adjusted percent change from baseline (2 g/day vs placebo, week 12, P 0.0136): −15.2%
- Proportion of total omega-6 fatty acids to total fatty acids in plasma, mean placebo-adjusted percent change from baseline (2 g/day vs placebo, week 12, P 0.3044): 3.2%
- DHA plasma concentration, mean placebo-adjusted percent change from baseline (2 g/day vs placebo, week 12, P 0.7217): −2.3%
- Proportion of saturated fatty acids to total fatty acids in plasma, mean placebo-adjusted percent change from baseline (2 g/day vs placebo, week 12, P 0.8076): −0.4%
- AA plasma concentration, mean placebo-adjusted percent change from baseline [1]: −16.4%
- Proportion of total omega-3 fatty acids to total fatty acids in plasma, mean placebo-adjusted percent change from baseline [1]: 68.4%
- Ratio of AA/EPA in plasma, mean placebo-adjusted percent change from baseline [1]: −88.4%
- Ratio of n-3/n-6 FA in plasma, mean placebo-adjusted percent change from baseline [1]: 76.8%
- AA plasma concentration, change from baseline (LS mean (SE)) (2 g/day): −36.7 (10.6)
- AA plasma concentration, end-of-treatment (mean) (2 g/day): 327.3
- DHA plasma concentration, change from baseline (LS mean (SE)) (2 g/day): −13.1 (6.2)
- DHA plasma concentration, end-of-treatment (mean) (2 g/day): 104.8
- Linoleic plasma concentration, change from baseline (LS mean (SE)) (2 g/day): −227 (121.4)
- Linoleic plasma concentration, end-of-treatment (mean) (2 g/day): 1981
- Oleic plasma concentration, change from baseline (LS mean (SE)) (2 g/day): −414 (142.9)
- Oleic plasma concentration, end-of-treatment (mean) (2 g/day): 2018
- Palmitic plasma concentration, change from baseline (LS mean (SE)) (2 g/day): −353 (126.9)
- Palmitic plasma concentration, end-of-treatment (mean) (2 g/day): 2015
- Proportion of monounsaturated fatty acids to total fatty acids in plasma, change from baseline (LS mean (SE)) (2 g/day): −1.4 (0.5) mol %
- Proportion of monounsaturated fatty acids to total fatty acids in plasma, end-of-treatment (mean (SD)) (2 g/day): 29.5 (4.9) mol %
- Proportion of saturated fatty acids to total fatty acids in plasma, change from baseline (LS mean (SE)) (2 g/day): −0.3 (0.5) mol %
- Proportion of saturated fatty acids to total fatty acids in plasma, end-of-treatment (mean (SD)) (2 g/day): 35.8 (3.7) mol %
- Proportion of total omega-3 fatty acids to total fatty acids in plasma, change from baseline (LS mean (SE)) (2 g/day): 2.0 (0.2) mol %
- Proportion of total omega-3 fatty acids to total fatty acids in plasma, end-of-treatment (mean (SD)) (2 g/day): 4.8 (1.3) mol %
- Proportion of total omega-6 fatty acids to total fatty acids in plasma, change from baseline (LS mean (SE)) (2 g/day): −0.2 (0.7) mol %
- Proportion of total omega-6 fatty acids to total fatty acids in plasma, end-of-treatment (mean (SD)) (2 g/day): 29.8 (6.8) mol %
- Ratio of AA/EPA in plasma, change from baseline (LS mean (SE)) (2 g/day): −9.6 (0.5)
- Ratio of AA/EPA in plasma, end-of-treatment (mean) (2 g/day): 2.3
- Ratio of n-3/n-6 FA in plasma, change from baseline (LS mean (SE)) (2 g/day): 0.07 (0.009)
- Ratio of n-3/n-6 FA in plasma, end-of-treatment (mean) (2 g/day): 0.17
- Stearic plasma concentration, change from baseline (LS mean (SE)) (2 g/day): −57.8 (33.3)
- Stearic plasma concentration, end-of-treatment (mean) (2 g/day): 541.5
- Oleic plasma concentration, mean placebo-adjusted percent change from baseline (4 g/day vs placebo, week 12, P 0.0001): −31.9%
- Stearic plasma concentration, mean placebo-adjusted percent change from baseline (4 g/day vs placebo, week 12, P 0.0002): −28.4%
- Linoleic plasma concentration, mean placebo-adjusted percent change from baseline (4 g/day vs placebo, week 12, P 0.0003): −23.7%
- Proportion of monounsaturated fatty acids to total fatty acids in plasma, mean placebo-adjusted percent change from baseline (4 g/day vs placebo, week 12, P 0.0008): −7.7%
- Proportion of saturated fatty acids to total fatty acids in plasma, mean placebo-adjusted percent change from baseline (4 g/day vs placebo, week 12, P 0.1049): −2.8%
- DHA plasma concentration, mean placebo-adjusted percent change from baseline (4 g/day vs placebo, week 12, P 0.7115): 2.4%
- Proportion of total omega-6 fatty acids to total fatty acids in plasma, mean placebo-adjusted percent change from baseline (4 g/day vs placebo, week 12, P 0.8846): 0.5%
- AA plasma concentration, mean placebo-adjusted percent change from baseline [2]: −26.8%
- Palmitic plasma concentration, mean placebo-adjusted percent change from baseline [2]: −34.4%
- Proportion of total omega-3 fatty acids to total fatty acids in plasma, mean placebo-adjusted percent change from baseline [2]: 132.7%
- Ratio of AA/EPA in plasma, mean placebo-adjusted percent change from baseline [2]: −99.4%
- Ratio of n-3/n-6 FA in plasma, mean placebo-adjusted percent change from baseline [2]: 145.8%
- AA plasma concentration, change from baseline (LS mean (SE)) (4 g/day): −76.2 (11.3)
- AA plasma concentration, end-of-treatment (mean) (4 g/day): 280.3
- DHA plasma concentration, change from baseline (LS mean (SE)) (4 g/day): −4.5 (6.6)
- DHA plasma concentration, end-of-treatment (mean) (4 g/day): 118.1
- Linoleic plasma concentration, change from baseline (LS mean (SE)) (4 g/day): −309 (128.1)
- Linoleic plasma concentration, end-of-treatment (mean) (4 g/day): 1882
- Oleic plasma concentration, change from baseline (LS mean (SE)) (4 g/day): −546 (154.0)
- Oleic plasma concentration, end-of-treatment (mean) (4 g/day): 1885
- Palmitic plasma concentration, change from baseline (LS mean (SE)) (4 g/day): −560 (138.1)
- Palmitic plasma concentration, end-of-treatment (mean) (4 g/day): 1789
- Proportion of monounsaturated fatty acids to total fatty acids in plasma, change from baseline (LS mean (SE)) (4 g/day): −1.7 (0.5) mol %
- Proportion of monounsaturated fatty acids to total fatty acids in plasma, end-of-treatment (mean (SD)) (4 g/day): 28.7 (4.0) mol %
- Proportion of saturated fatty acids to total fatty acids in plasma, change from baseline (LS mean (SE)) (4 g/day): −1.2 (0.5) mol %
- Proportion of saturated fatty acids to total fatty acids in plasma, end-of-treatment (mean (SD)) (4 g/day): 34.8 (3.5) mol %
- Proportion of total omega-3 fatty acids to total fatty acids in plasma, change from baseline (LS mean (SE)) (4 g/day): 3.8 (0.2) mol %
- Proportion of total omega-3 fatty acids to total fatty acids in plasma, end-of-treatment (mean (SD)) (4 g/day): 6.7 (1.9) mol %
- Proportion of total omega-6 fatty acids to total fatty acids in plasma, change from baseline (LS mean (SE)) (4 g/day): −0.9 (0.7) mol %
- Proportion of total omega-6 fatty acids to total fatty acids in plasma, end-of-treatment (mean (SD)) (4 g/day): 29.8 (6.2) mol %
- Ratio of AA/EPA in plasma, change from baseline (LS mean (SE)) (4 g/day): −10.8 (0.5)
- Ratio of AA/EPA in plasma, end-of-treatment (mean) (4 g/day): 1.2
- Ratio of n-3/n-6 FA in plasma, change from baseline (LS mean (SE)) (4 g/day): 0.4 (0.009)
- Ratio of n-3/n-6 FA in plasma, end-of-treatment (mean) (4 g/day): 0.24
- Stearic plasma concentration, change from baseline (LS mean (SE)) (4 g/day): −101 (35.4)
- Stearic plasma concentration, end-of-treatment (mean) (4 g/day): 500.3
